Test results published in patent US11970515B1, “Crystal form of Brassinosteroid (BR) analogue, and preparation method and use thereof” (CHENGDU NEWSUN CROP SCIENCE CO., LTD., priority 2021, dated 2024).

Legend:
tobacco seedlings [1] = assay: Promoting growth of tobacco seedlings (leaf spray, leaf area growth rate); assay type: in vivo; details: for Growth-promoting effect (in words): 7 d after treatment; for 7-day leaf area growth rate (%): leaf spray, 7 d
Method: The example of the present disclosure provided use of the novel crystal form I and the novel crystal form II in promoting plant growth, specifically an experiment of promoting growth of tobacco seedlings was taken as an example, the steps were as follows:
In the present disclosure, the novel crystal form I and the novel crystal form II each were prepared with anhydrous ethanol into a 10 mg/ml mother solution, and used immediately during the experiment.
Tobacco seedlings with a seedling age of 7 d were transplanted and planted in a cultivation room, and the seedlings were subjected to recovery for 2 d before testing. After the treatment agent was formulated according to the experimental design, the leaves of the tobacco seedlings were evenly sprayed, and each treatment was repeated 3 times, with 2 plants in each repetition, that is, 6 seedlings in each treatment. […] The RGB AREA_MM parameter (leaf area/mm^2) of the tobacco was recorded with a plant phenotype instrument before and 7 d […], and a growth rate of the leaf area was calculated to evaluate a growth-promoting effect of the drug. The formula for calculating a leaf area growth rate was as follows: Growth rate (%)=(final leaf area−initial leaf area)×100%/initial leaf area

corn seeds = assay: Immersing corn seeds to promote germination and growth of corn; assay type: in vivo; details: for Bud vigor index / Root vigor index / Germination rate (%): 7th day; for Germination rate (%): seeds immersed 24 h
Method: The example of the present disclosure provided use of the novel crystal form I and the novel crystal form II in promoting plant growth, specifically an experiment of immersing corn seeds to promote germination and growth of corn was taken as an example, the steps were as follows:
In the present disclosure, the novel crystal form I was prepared with anhydrous ethanol into a 10 mg/ml mother solution, and used immediately during the experiment.
The agents were prepared according to the experimental design. 20 normal plump corn seeds were selected, placed in the agent, and immersed at 26° C. for 24 h. The seeds were washed with water, placed in a culture box and placed in a constant-temperature incubator for germination. The germination was conducted in 2 periods: 14 h of light illumination, at 28° C.; 10 h in the dark, at 25° C., and for 7 d. Each treatment was repeated 3 times. During the whole experiment, 5 ml of water was regularly added with a pipette at 9:00 every day to keep the culture box moist. After 7 days, the germination rate was counted, the shoot length and root length were measured, and the root vigor and shoot vigor were calculated. Germination rate=germinated number of seeds treated on 7th day/total number of treated seeds×100%; Bud vigor index=germination rate of 7th day×seedling bud length of 7th day; Root vigor index=germination rate of 7th day×seedling root length of 7th day.

Solubility in ethanol = assay type: physicochemical; details: different temperatures
Method: (§1) 2. Solubility Research • (1) 50 mg of the crystal form I and crystal form II were separately added to a test tube, slowly added with ethanol dropwise at different temperatures while conducting vibration until completely dissolved. Weighing was conducted and a total mass was recorded, converted into volume, expressed as mg/mL. The experimental results were shown in FIG. 11 and FIG. 12. • (2) 50 mg of the crystal form I and crystal form II were separately added to a test tube, slowly added with water dropwise at different temperatures while conducting vibration until completely dissolved. Weighing was conducted and a total mass was recorded, converted into volume, expressed as mg/mL.

Solubility in water = assay type: physicochemical; details: different temperatures
Method: as §1

[2] = Stability test of crystal forms in high-temperature environment at 80° C.±2° C.; assay type: physicochemical
Method: Appropriate amounts of the crystal form I and crystal form II were separately placed in a high-temperature environment at 80° C.±2° C. for stability experiments, and the experimental results were shown in Table 1.

tobacco seedlings [3] = assay: Promoting cold resistance of tobacco (chlorophyll fluorescence after 4° C. cold injury); assay type: in vivo
Method: The example of the present disclosure provided use of the novel crystal form II in promoting stress resistance of plants, specifically an experiment of promoting cold resistance of tobacco was taken as an example, the steps were as follows:
In the present disclosure, the novel crystal form II was prepared with anhydrous ethanol into a 10 mg/ml mother solution, and used immediately during the experiment.
After the treatment agents were prepared according to Table 6, the leaves of the tobacco seedlings were evenly sprayed in the morning. […] After 1 d of recovery, cold injury (4° C.) treatment was conducted, while other conditions remained the same as those during normal culture. The chlorophyll fluorescence QY-max parameter (theoretical maximum photosynthetic capacity) and Fv/Fm (maximum photon yield of PSII) of tobacco were recorded before drug treatment, after 6 h and 24 h of low-temperature treatment, and after 24 h of recovery at room temperature (25° C.) separately with a plant phenotype instrument.
QY-max represents the theoretical maximum photosynthetic capacity of plants, and the smaller its reduction rate, the better the plant's low-temperature resistance. Fv/Fm-lss represents the maximum photon yield of PSII, similar to QY-max, the smaller its reduction rate, the better the plant's low-temperature resistance. […] Afterwards, each treatment was placed at room temperature (25° C.) for recovery.

[4] = 0.003 ppm, low-temperature (4° C.) treatment for 6 h
[5] = 0.003 ppm, low-temperature (4° C.) treatment for 24 h
[6] = 0.003 ppm, room-temperature (25° C.) recovery for 24 h
[7] = 0.03 ppm, low-temperature (4° C.) treatment for 6 h
[8] = 0.03 ppm, low-temperature (4° C.) treatment for 24 h
[9] = 0.03 ppm, room-temperature (25° C.) recovery for 24 h
[10] = 0.3 ppm, low-temperature (4° C.) treatment for 6 h
[11] = 0.3 ppm, low-temperature (4° C.) treatment for 24 h
[12] = 0.3 ppm, room-temperature (25° C.) recovery for 24 h

CC(C)(O)CC[C@@H](O)[C@](C)(O)C1CC[C@@]2(O)[C@H]3CC(=O)[C@@H]4C[C@@H](O)[C@@H](O)C[C@]4(C)[C@H]3CC[C@]12C (single isomer, unassigned) [Novel crystal form I]
Growth-promoting effect (in words) (tobacco seedlings [1]; 0.003 ppm): obvious growth-promoting effects
7-day leaf area growth rate (%) (tobacco seedlings [1]; 0.003 ppm): 179.02 ± 0.15%
7-day leaf area growth rate (%) (tobacco seedlings [1]; 0.03 ppm): 166.45 ± 0.18%
7-day leaf area growth rate (%) (tobacco seedlings [1]; 0.3 ppm): 145.98 ± 0.39%
Bud vigor index (corn seeds; 0.003 ppm): 7.77 ± 0.36
Root vigor index (corn seeds; 0.003 ppm): 8.80 ± 0.29
Germination rate (%) (corn seeds; 0.003 ppm): 72.12 ± 1.15%
Effect on root and bud vigor indexes versus control CK (in words) (corn seeds; 0.03 ppm): best effect, which was obviously better than that of the control CK
Germination effect on corn compared with the water control (in words) (corn seeds; 0.03 ppm): germination-promoting effect
Bud vigor index (corn seeds; 0.03 ppm): 10.93 ± 0.17
Root vigor index (corn seeds; 0.03 ppm): 10.89 ± 0.24
Germination rate (%) (corn seeds; 0.03 ppm): 77.34 ± 1.99%
Bud vigor index (corn seeds; 0.3 ppm): 9.26 ± 0.24
Root vigor index (corn seeds; 0.3 ppm): 9.77 ± 0.53
Germination rate (%) (corn seeds; 0.3 ppm): 75.38 ± 2.37%
Effect on root and bud vigor indexes (in words) (corn seeds; in vivo): effect of improving the root vigor index and bud vigor index
Solubility in ethanol (in words) (Solubility in ethanol): desirable solubility
Solubility in water (in words) (Solubility in water): desirable solubility
Stability in high-temperature environment (in words) [2]: highly stable in the high-temperature environment, and no crystal form change occurred
Content (%) ([2]; test time 0 d): 99.98%
Content of other substances (%) ([2]; test time 0 d): 0.02%
XRPD ([2]; test time 0 d): Unchanged
Content (%) ([2]; test time 5 d): 99.93%
Content of other substances (%) ([2]; test time 5 d): 0.07%
XRPD ([2]; test time 5 d): Unchanged
Content (%) ([2]; test time 10 d): 99.96%
Content of other substances (%) ([2]; test time 10 d): 0.04%
XRPD ([2]; test time 10 d): Unchanged

CC(C)(O)CC[C@@H](O)[C@](C)(O)C1CC[C@@]2(O)[C@H]3CC(=O)[C@@H]4C[C@@H](O)[C@@H](O)C[C@]4(C)[C@H]3CC[C@]12C (single isomer, unassigned) [Novel crystal form II]
Growth-promoting effect (in words) (tobacco seedlings [1]; 0.003 ppm): obvious growth-promoting effects
7-day leaf area growth rate (%) (tobacco seedlings [1]; 0.003 ppm): 169.02 ± 0.26%
7-day leaf area growth rate (%) (tobacco seedlings [1]; 0.03 ppm): 153.44 ± 0.19%
7-day leaf area growth rate (%) (tobacco seedlings [1]; 0.3 ppm): 150.31 ± 0.39%
Fv/Fm-lss change rate (%) (tobacco seedlings [3]; [4]): −30.1 ± 0.22%
QY-max change rate (%) (tobacco seedlings [3]; [4]): −10.4 ± 0.13%
Fv/Fm-lss change rate (%) (tobacco seedlings [3]; [5]): −46.1 ± 0.28%
QY-max change rate (%) (tobacco seedlings [3]; [5]): −31.0 ± 0.18%
Fv/Fm-lss change rate (%) (tobacco seedlings [3]; [6]): −16.2 ± 0.27%
QY-max change rate (%) (tobacco seedlings [3]; [6]): −10.0 ± 0.24%
Reduction rate of QY-max and Fv/Fm-lss versus water control (in words) (tobacco seedlings [3]; 0.03 ppm, after 6 h of low-temperature treatment): significantly lower than that of the water control
Recovery effect, comparison of concentrations (in words) (tobacco seedlings [3]; 0.03 ppm, after 24 h of recovery at room temperature): the best
Fv/Fm-lss change rate (%) (tobacco seedlings [3]; [7]): −14.3 ± 0.13%
QY-max change rate (%) (tobacco seedlings [3]; [7]): −3.6 ± 0.33%
Fv/Fm-lss change rate (%) (tobacco seedlings [3]; [8]): −33.4 ± 0.12%
QY-max change rate (%) (tobacco seedlings [3]; [8]): −27.6 ± 0.16%
Fv/Fm-lss change rate (%) (tobacco seedlings [3]; [9]): 0.3 ± 0.16%
QY-max change rate (%) (tobacco seedlings [3]; [9]): −0.6 ± 0.18%
Fv/Fm-lss change rate (%) (tobacco seedlings [3]; [10]): −26.4 ± 0.27%
QY-max change rate (%) (tobacco seedlings [3]; [10]): −7.9 ± 0.25%
Fv/Fm-lss change rate (%) (tobacco seedlings [3]; [11]): −44.4 ± 0.25%
QY-max change rate (%) (tobacco seedlings [3]; [11]): −30.0 ± 0.27%
Fv/Fm-lss change rate (%) (tobacco seedlings [3]; [12]): −4.5 ± 0.21%
QY-max change rate (%) (tobacco seedlings [3]; [12]): −5.2 ± 0.13%
Recovery effect versus clean water control (in words) (tobacco seedlings [3]; each concentration, after 24 h of recovery at room temperature): better than that of the clean water control
Low-temperature resistance, summary (in words) (tobacco seedlings [3]; in vivo): bioactivity of anti-low temperature
Solubility in ethanol (in words) (Solubility in ethanol): desirable solubility
Solubility in water (in words) (Solubility in water): desirable solubility
Stability in high-temperature environment (in words) [2]: highly stable in the high-temperature environment, and no crystal form change occurred
Content (%) ([2]; test time 0 d): 99.87%
Content of other substances (%) ([2]; test time 0 d): 0.13%
XRPD ([2]; test time 0 d): Unchanged
Content (%) ([2]; test time 5 d): 99.84%
Content of other substances (%) ([2]; test time 5 d): 0.16%
XRPD ([2]; test time 5 d): Unchanged
Content (%) ([2]; test time 10 d): 99.87%
Content of other substances (%) ([2]; test time 10 d): 0.13%
XRPD ([2]; test time 10 d): Unchanged
